{
  "source": "patent US8524285B2",
  "about": "“Nutraceutical mangosteen composition” (DBC, LLC, priority 2002, dated 2013)",
  "origin": "cited, not measured here",
  "key": {"type A monoamine oxidase": {"target": "T1, type A monoamine oxidase (Homo sapiens, UniProt P21397)", "T1 sequence (P21397 1-527)": "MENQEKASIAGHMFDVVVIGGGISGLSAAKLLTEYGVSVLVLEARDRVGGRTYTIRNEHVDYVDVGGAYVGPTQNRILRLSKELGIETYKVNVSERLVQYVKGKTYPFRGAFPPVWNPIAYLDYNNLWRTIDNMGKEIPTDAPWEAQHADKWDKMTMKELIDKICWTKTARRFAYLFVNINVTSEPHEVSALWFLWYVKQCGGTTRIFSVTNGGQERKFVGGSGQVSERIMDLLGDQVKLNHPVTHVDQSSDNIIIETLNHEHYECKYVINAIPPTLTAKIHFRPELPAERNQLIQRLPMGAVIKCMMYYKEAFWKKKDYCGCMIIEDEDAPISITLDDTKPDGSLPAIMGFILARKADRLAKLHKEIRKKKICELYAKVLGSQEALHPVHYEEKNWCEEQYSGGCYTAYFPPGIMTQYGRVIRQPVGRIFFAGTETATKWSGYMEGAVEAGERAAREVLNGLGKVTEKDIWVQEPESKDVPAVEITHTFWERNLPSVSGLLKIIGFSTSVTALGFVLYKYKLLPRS", "conditions": "Nakatani et al., 63 Biochemical Pharmacology 73-79 (2002)"}, "type B monoamine oxidase": {"target": "T2, type B monoamine oxidase (Homo sapiens, UniProt P27338)", "T2 sequence (P27338 1-520)": "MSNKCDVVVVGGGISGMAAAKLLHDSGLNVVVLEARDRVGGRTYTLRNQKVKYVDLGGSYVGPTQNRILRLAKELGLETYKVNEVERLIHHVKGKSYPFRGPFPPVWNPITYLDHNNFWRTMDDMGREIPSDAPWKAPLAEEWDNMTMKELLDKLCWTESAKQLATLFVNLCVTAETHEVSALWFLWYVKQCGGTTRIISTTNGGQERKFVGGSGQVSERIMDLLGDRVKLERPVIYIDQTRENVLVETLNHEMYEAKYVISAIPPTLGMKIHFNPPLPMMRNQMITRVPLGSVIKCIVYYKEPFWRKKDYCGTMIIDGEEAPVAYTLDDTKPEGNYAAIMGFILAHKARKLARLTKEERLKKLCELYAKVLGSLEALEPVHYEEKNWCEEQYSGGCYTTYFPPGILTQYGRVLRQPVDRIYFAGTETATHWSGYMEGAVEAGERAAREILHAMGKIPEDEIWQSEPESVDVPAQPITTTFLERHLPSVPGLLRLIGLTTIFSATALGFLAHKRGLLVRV", "conditions": "Nakatani et al., 63 Biochemical Pharmacology 73-79 (2002)"}, "COX-1": {"target": "COX-1 (Homo sapiens, UniProt P23219)", "sequence (P23219 24-599)": "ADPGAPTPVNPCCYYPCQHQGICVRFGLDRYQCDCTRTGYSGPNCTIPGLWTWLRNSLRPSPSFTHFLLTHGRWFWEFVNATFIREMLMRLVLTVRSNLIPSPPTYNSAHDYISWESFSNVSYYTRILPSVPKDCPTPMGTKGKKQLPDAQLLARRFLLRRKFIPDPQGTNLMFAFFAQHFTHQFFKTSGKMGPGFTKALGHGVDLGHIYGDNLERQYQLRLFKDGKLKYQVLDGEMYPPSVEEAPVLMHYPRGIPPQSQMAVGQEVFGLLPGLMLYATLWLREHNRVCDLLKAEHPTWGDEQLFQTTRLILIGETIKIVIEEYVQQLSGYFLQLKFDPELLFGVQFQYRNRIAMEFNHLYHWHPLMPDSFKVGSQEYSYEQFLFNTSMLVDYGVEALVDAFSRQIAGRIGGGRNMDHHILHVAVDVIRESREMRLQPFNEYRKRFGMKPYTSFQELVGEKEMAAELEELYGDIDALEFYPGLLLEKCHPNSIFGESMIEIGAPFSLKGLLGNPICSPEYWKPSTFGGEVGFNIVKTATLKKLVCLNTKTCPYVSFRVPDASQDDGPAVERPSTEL", "conditions": "constitutive isoform; Nakatani et al. (2002)"}, "[1]": {"tested_on": "prostaglandin E2 synthesis", "conditions": "Nakatani et al. (2002)"}},
  "data": [
    {"smiles": "CC(C)=CCc1c(O)cc2oc3cc(O)c(O)c(CC=C(C)C)c3c(=O)c2c1O", "note": "[γ-mangostin]", "values": [
      {"measurement": "inhibition of type A monoamine oxidase", "setting": "type A monoamine oxidase", "value": "inhibits"},
      {"measurement": "inhibition of type B monoamine oxidase", "setting": "type B monoamine oxidase", "value": "inhibits"},
      {"measurement": "inhibition of COX-1 activity", "setting": "COX-1", "value": "directly inhibit"},
      {"measurement": "inhibition of prostaglandin E2 synthesis", "setting": "[1]", "value": "inhibits"}
    ]}
  ]
}
